Experimental data published in patent US20240287110A1, “PHOSPHATE OF TRIFLUOROMETHYL-SUBSTITUTED SULFONAMIDE COMPOUND” (CHIA TAI TIANQING PHARMACEUTICAL GROUP CO., LTD., priority 2021, published 2024).
In brackets after ≈: the same amount, converted by molar mass.

What was measured:
RS4; 11 cells = test: Inhibitory effect on proliferation of RS4; 11 cells (CCK-8); type: cell-based; settings: Homo sapiens, 72 h, CCK-8, 5% serum
Procedure: RS4; 11 cells in logarithmic growth phase and good cell condition were added to a centrifuge tube and centrifuged at 1500 rpm for 3 min in a low speed centrifuge. The supernatant was discarded, and 5 mL of complete medium (RPMI basic medium+10% FBS) was added using a pipette for cell resuspension. The cells were counted using a cell counter and diluted with complete medium to a cell density of 2×10^5 cells/mL, and then an equivalent amount of RPMI basic medium was added to adjust the serum concentration to 5% and the cell density to 1×10^5 cells/mL for plate seeding. The cells were seeded on a 96-well plate at […] using a multi-channel pipette and cultured in a cell incubator at 37° C., 5% CO2 with saturated humidity. After 24 h of incubation, compounds (500-0.1 nM) were loaded using a nanoliter pipettor, 2 replicate wells were set for each concentration, and cells without compound were used as negative controls. After 72 h, CCK-8 was added at 10 μL/well for incubation for 4 h, then absorbance was measured at 450 nm with an Envision plate reader, and inhibition rate was calculated. […] A dose-response curve was fitted by four-parameter analysis, with the logarithm of compound concentration as abscissa and inhibition rate as ordinate, so that IC50 was calculated (see Table 2).

BCL-XL/BAK = biological target: T1, BCL-XL/BAK (Homo sapiens, UniProt Q07817); test: Screening on inhibitory activity for BCL-XL/BAK binding (Cisbio HTRF kit); settings: Tag1-BCL-XL / Tag2-BAK binding, 25° C.
T1 construct: purchased Cisbio 63ADK000CB04PEH
Procedure: A 300 nM Tag1-BCL-XL protein stock solution and a 10 μM Tag2-BAK protein stock solution were diluted to 2 nM and 80 nM respectively with a dilution buffer in a kit (manufacturer: Cisbio, Cat. No.: 63ADK000CB04PEH). 5 μL of Tag1-BCL-XL protein diluent was added to each well, and then different compounds dissolved in DMSO were added to the wells using a nanoliter pipettor, allowing the final compound concentrations to be 2000 nM to 0.488 nM (4-fold gradient for 7 concentrations in total). Blank control wells (without enzyme) and negative control wells (with enzyme, plus vehicle DMSO) were set, and 2 replicate wells were set. Finally, 5 μL of Tag2-BAK protein diluent was added to each well, and the mixture was mixed well by centrifugation and incubated at 25° C. for 15 min. 100× anti-Tag1-Eu^3+ and 100× anti-Tag2-XL665 were both diluted to 1× working concentration with a detection buffer in the kit. Anti-Tag1-Eu^3+ and anti-Tag2-XL665 were mixed well in a 1:1 ratio, and 5 μL of the mixture was added to each well. The resulting mixture was incubated at 25° C. for 2 h or more. The plate was read using a PE Envision multi-functional microplate reader (excitation: 620 nm, emission: 665 nm), and IC50 (shown in Table 1) was calculated by four-parameter fitting.

BCL-2/BAK = biological target: T2, BCL-2/BAK (Homo sapiens, UniProt P10415); test: Screening on inhibitory activity for BCL-2/BAK binding (Cisbio HTRF kit); settings: Tag1-BCL-2 / Tag2-BAK binding, 25° C.
T2 construct: purchased Cisbio 63ADK000CB01PEH
Procedure: A 500 nM Tag1-BCL-2 protein stock solution and a 20 μM Tag2-BAK protein stock solution were diluted to 5 nM and 120 nM respectively with a dilution buffer in a kit (manufacturer: Cisbio, Cat. No.: 63ADK000CB01PEH). […] of Tag1-BCL-2 protein diluent was added to each well, and then different compounds dissolved in DMSO were added to the wells using a nanoliter pipettor, allowing the final compound concentrations to be 200 nM to 0.0488 nM (4-fold gradient for 7 concentrations in total). Blank control wells (without enzyme) and negative control wells (with enzyme, plus vehicle DMSO) were set, and 2 replicate wells were set. Finally, 5 μL of Tag2-BAK protein diluent was added to each well, and the mixture was mixed well by centrifugation and incubated at 25° C. for 15 min. 100× anti-Tag1-Eu^3+ and 100× anti-Tag2-XL665 were both diluted to 1× working concentration with a detection buffer in the kit. Anti-Tag1-Eu^3+ and anti-Tag2-XL665 were mixed well in a 1:1 ratio, and 5 μL of the mixture was added to each well. The resulting mixture was incubated at 25° C. for 2 h or more. The plate was read using a PE Envision multi-functional microplate reader (excitation: 620 nm, emission: 665 nm), and IC50 (shown in Table 1) was calculated by four-parameter fitting.

[1] = Determination of solubility in water at pH 7.4; type: physicochemical; settings: aqueous phosphate medium, aqueous buffer, thermodynamic from solid; pH 7.4, 25° C.
Procedure: Reagents used were 0.2 M NaOH (SinoPharm lot No. 20180223) and 0.2 M phosphate (SinoPharm 20180910, pH 7.4). Instruments/equipment used included a balance (HPLC Dionex U3000, Mettler XPE105DR), pipettes (TIANBO 0.5 mL and 0.1 mL), a thermostatic CNC shaker (ZWY-240, set at 25° C. and 200 rpm).
The example compounds were tested in an aqueous medium at 25° C. An excess of each example compound was weighed out and mixed with an aliquot of the target medium in a clear glass vial. The vial was sealed with a cap and then shaken in the shaker at 25° C. as appropriate. When equilibration was completed, the sample was removed from the shaker and the final pH was measured. The suspension was filtered through a 13 mm needle-type filter and a 0.22 m Syring Filter needle-type filter (hydrophilic PTFE-SA membrane, lot No. HKS13SATQ2B). Each filter was used for only one sample. The determination was carried out after the filtrate had been suitably diluted with the same solvent as used for the stock solution. The concentration of the sample was calculated based on a calibration curve of the compound.

T2 sequence (P10415 whole entry, species assumed): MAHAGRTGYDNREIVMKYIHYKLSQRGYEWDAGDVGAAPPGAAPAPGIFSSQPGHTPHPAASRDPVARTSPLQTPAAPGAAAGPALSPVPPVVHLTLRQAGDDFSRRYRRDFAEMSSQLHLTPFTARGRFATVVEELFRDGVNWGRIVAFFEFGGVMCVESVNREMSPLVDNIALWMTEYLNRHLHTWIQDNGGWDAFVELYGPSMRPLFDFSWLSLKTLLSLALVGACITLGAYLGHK
T1 sequence (Q07817 whole entry, species assumed): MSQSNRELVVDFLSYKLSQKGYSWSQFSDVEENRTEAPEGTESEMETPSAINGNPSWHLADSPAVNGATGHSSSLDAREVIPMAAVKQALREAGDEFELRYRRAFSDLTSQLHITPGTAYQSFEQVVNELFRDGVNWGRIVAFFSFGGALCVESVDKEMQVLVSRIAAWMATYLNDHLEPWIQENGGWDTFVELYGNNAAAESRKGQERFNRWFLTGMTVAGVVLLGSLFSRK

IC50 (RS4; 11 cells) [nM] | IC50 (BCL-XL/BAK) [nM] | IC50 (BCL-2/BAK) [nM] | solubility [1] [mg/mL] | SMILES
14.8 | 251 | 2.9 | 2.23 (≈ 2.17 mM) | Cc1cc(C(F)(F)F)ccc1C1=C(CN2CCN(c3ccc(C(=O)NS(=O)(=O)c4ccc(NC[C@H]5COCCO5)c([N+](=O)[O-])c4)c(Oc4cc5ccnc-5n(COP(=O)(O)O)c4)c3)CC2)CCC(C)(C)C1 [Example 2]
15.9 | 328 | 3 | 19.4 (≈ 18.5 mM) | CC1(C)CCC(CN2CCN(c3ccc(C(=O)NS(=O)(=O)c4ccc(NC[C@H]5COCCO5)c([N+](=O)[O-])c4)c(Oc4cc5ccnc-5n(COP(=O)(O)O)c4)c3)CC2)=C(c2ccc(C(F)(F)F)cc2Cl)C1 [Example 1]
